Consider three compounds from paper PMC10892093 (Pharmaceutics, 2024).

In one data set the target is T1, UGT2B7 (Homo sapiens, UniProt P16662).
T1 construct: expressed in transfected cells; microsomal fraction
T1 sequence (P16662 24-529): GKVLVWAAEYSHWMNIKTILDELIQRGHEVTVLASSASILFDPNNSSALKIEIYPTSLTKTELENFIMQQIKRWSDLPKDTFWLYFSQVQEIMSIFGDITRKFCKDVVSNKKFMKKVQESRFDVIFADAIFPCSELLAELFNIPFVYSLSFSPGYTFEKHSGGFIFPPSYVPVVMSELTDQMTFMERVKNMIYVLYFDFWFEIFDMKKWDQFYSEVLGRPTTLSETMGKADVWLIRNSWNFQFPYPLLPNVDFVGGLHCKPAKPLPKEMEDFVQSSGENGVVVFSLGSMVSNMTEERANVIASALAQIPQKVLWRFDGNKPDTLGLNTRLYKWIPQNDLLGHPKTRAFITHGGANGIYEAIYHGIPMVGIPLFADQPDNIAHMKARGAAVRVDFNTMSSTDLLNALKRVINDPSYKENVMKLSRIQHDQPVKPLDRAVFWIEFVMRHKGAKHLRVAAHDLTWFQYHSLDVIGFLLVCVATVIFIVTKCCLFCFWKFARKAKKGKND
Put plainly: Inhibition of R- and S-oxazepam glucuronidation in rUGT2B7 microsomes (UGT-overexpressing HEK293). The data set is classed as biochemical. As for the experimental part: (§1) Human embryonic kidney cells (HEK293) stably overexpressing the single UGTs 1A9, 2B7, and 2B15 have been previously established and described. Cells were grown in DMEM supplemented with 350 μg/mL of geneticin and 10% FBS and harvested in PBS. Microsomal fractions of UGT-overexpressing cell lines were prepared by differential centrifugation using previously described protocols. Briefly, cell homogenates were prepared by resuspending pelleted cells in PBS, followed by five rounds of freeze–thaw cycles prior to homogenization. Recombinant microsomes (rUGTs) were prepared by centrifuging the cell homogenate at a low speed (9000× g for 30 min) followed by ultracentrifugation (34,000× g for 60 min), with the total protein subsequently determined using a BCA assay. Recombinant microsomes (UGT1A9 and 2B7) and homogenates (UGT2B15) were used for inhibition studies.
(§2) A Waters Corp BEH C18 Acquity UPLC column (1.7 µM, 2.1 × 100 mm) was used at a constant temperature of 40 °C for chromatographic separation. An elution gradient was used for 6.5 min with mobile phases A (5 mM ammonium formate) and B (100% methanol) under the following conditions: 90% A for 0.5 min, followed by a linear gradient for 3 min to 60% A, 1 min at 5% A, and re-equilibration for 1 min at 90% A.
(§3) The reaction was initiated by the addition of 4 mM UDPGA as the cofactor and incubated for 2 h at 37 °C. The reaction was terminated by adding 30 µL of an ice-cold stop solution (acetonitrile/methanol; 1:1). The reaction mixtures were centrifuged at 17,000× g for 30 min at 4 °C, and the supernatant was transferred to UPLC sample glass vial for analysis using UPLC–MS/MS (described above). […] As a positive control for inhibition assays, ketoconazole (10 μM and 100 µM) was used as a potential inhibitor of the UGTs 1A9, 2B7, and 2B15. Reactions containing only the cannabinoid vehicle (3% methanol) and without any inhibitor (cannabinoids) were used as a baseline reaction for 100% enzyme activity, while a reaction without UDPGA was used as a negative control. All experiments were performed in three independent experiments.
(§4) Determination of IC50 and Ki Values. […] The nonspecific binding constants (fu,inc) for cannabinoids in HEK293 microsomes, HLM, and HKM were previously determined and used to calculate the inhibition by unbound (‘free’) cannabinoid in each reaction. A nonlinear regression analysis and the following equation were used to calculate the IC50 values:(1) y = Bottom +Top − Bottom / 1 + 10^x − LogIC50A where ‘Bottom’ is the maximum observed inhibition (lowest percent activity) and ‘Top’ is the minimum observed inhibition (highest percent activity) for a given cannabinoid.

The target of a further data set is T2, UGT1A9 (Homo sapiens, UniProt O60656).
T2 construct: expressed in transfected cells; microsomal fraction
T2 sequence (O60656 26-530): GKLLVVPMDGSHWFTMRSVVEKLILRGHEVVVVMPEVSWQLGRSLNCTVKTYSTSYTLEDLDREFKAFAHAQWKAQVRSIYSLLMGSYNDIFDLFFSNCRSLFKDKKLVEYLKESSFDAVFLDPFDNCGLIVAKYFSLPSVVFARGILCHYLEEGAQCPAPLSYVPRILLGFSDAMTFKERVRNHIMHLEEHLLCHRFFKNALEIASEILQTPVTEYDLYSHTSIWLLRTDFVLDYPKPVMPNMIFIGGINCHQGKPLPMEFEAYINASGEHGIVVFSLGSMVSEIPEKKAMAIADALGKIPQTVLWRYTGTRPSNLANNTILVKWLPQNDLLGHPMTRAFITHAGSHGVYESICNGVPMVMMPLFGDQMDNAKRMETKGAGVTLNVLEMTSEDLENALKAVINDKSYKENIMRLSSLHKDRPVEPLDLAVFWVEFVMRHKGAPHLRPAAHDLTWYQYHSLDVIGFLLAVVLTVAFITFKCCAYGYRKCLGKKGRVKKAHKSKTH
In words: Inhibition of R-oxazepam glucuronidation in rUGT1A9 microsomes (UGT-overexpressing HEK293). Format: biochemical. As for the experimental part:
as §1, §2, §3, §4

Data set [1] deals with human liver microsomes (HLM). Put plainly: Inhibition of R- and S-oxazepam glucuronidation in human liver microsomes. The settings on record: read-out: IC50, oxazepam glucuronidation (marginal or no inhibition). As for the experimental part: as §2, §3, §4
The inhibition constant (Ki) was generated from the in vitro IC50 values assuming competitive inhibition (based on the Cheng–Prusoff equation; [49]). Considering that there have been no reports of the irreversible inhibition (e.g., mechanism-based inhibition) of UGTs, competitive inhibition was assumed as the worst-case scenario (highest inhibition) among all feasible types of reversible inhibitions. The substrate concentration used in the incubations was below the reported Km; therefore, the Ki values were predicted using Equation (2):(2) Ki=IC50/S/Km+1 where Km is Michaelis–Menten constant for the substrate, S is the substrate concentration, and IC50 is half-maximal inhibitory concentration.
(In general: Liver microsomes are a subcellular fraction often used to study metabolism.)

The target of a further data set is T3, UGT2B15 (Homo sapiens, UniProt P54855).
T3 construct: expressed in transfected cells; cell homogenate
T3 sequence (P54855 24-530): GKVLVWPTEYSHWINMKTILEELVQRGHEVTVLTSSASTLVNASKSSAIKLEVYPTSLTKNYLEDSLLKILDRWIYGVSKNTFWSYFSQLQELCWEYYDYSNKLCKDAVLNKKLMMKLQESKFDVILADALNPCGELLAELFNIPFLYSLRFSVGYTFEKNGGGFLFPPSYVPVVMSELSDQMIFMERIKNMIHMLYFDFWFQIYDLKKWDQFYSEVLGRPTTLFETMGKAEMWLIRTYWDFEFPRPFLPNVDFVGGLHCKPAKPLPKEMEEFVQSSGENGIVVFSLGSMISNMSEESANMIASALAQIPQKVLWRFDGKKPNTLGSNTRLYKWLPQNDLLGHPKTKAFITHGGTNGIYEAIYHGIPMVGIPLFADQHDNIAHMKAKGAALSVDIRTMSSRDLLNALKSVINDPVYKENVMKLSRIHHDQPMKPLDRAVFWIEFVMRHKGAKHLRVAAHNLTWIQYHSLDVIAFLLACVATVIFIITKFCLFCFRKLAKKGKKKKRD
In words: Inhibition of S-oxazepam glucuronidation in rUGT2B15 homogenate/microsomes (UGT-overexpressing HEK293). The data set is classed as biochemical. As for the experimental part: as §1, §2, §3, §4

In data set [2] the test system is human kidney microsomes (HKM). In words: Inhibition of R- and S-oxazepam glucuronidation in human kidney microsomes. The settings on record: read-out: IC50, oxazepam glucuronidation (marginal or no inhibition). As for the experimental part:
as §2, §3, §4

For data set [3] the following is noted: value set for the static model; cited from earlier work.
Setting [4] is: rUGT2B7 microsomes, 100 µM cannabinoid.

Broadly, the IC50 is the point on the concentration scale where inhibition reaches its midpoint. For `CCCCCc1cc(O)c2c(c1)OC(C)(C)[C@@H]1CCC(C(=O)O)=C[C@@H]21` [11-COOH-THC, 11-nor-9-carboxy-Δ^9-tetrahydrocannabinol], at UGT2B7 (setting [4]), the “Inhibition of R-oxazepam glucuronidation” value is 45%. Also, the “Inhibition of S-oxazepam glucuronidation” value on UGT2B7 (setting [4]) was 55%. In addition, the concentration for half-maximal inhibition (IC50) on UGT2B7 (read-out: IC50, oxazepam glucuronidation (marginal or no inhibition), recombinant UGT microsomes (rUGT2B7)) is more than 100 µM; on UGT1A9 (read-out: IC50, oxazepam glucuronidation (marginal or no inhibition), recombinant UGT microsomes (rUGT1A9)) it was more than 100 µM; in data set [1], more than 100 µM; at UGT2B15 (read-out: IC50, oxazepam glucuronidation (marginal or no inhibition), recombinant UGT microsomes (rUGT2B15)), more than 100 µM; in data set [2] it was more than 100 µM. Besides, the “Inhibition of R-oxazepam glucuronide formation” value at UGT1A9 (rUGT1A9 microsomes, 100 µM cannabinoid, vs control without cannabinoid) is 80%.

The inhibition is how much of the control response was suppressed. Read a low inhibition as a weak effect. As to `CC(=O)N1CCN(c2ccc(OCC3COC(Cn4ccnc4)(c4ccc(Cl)cc4Cl)O3)cc2)CC1` (stereo not drawn) [ketoconazole], the inhibition at 2 h, 100 µM against UGT2B7 (human, pH 7.4, probe R,S-oxazepam 60 µM, oxazepam glucuronide formation, Inhibition of oxazepam glucuronide formation, rUGT2B7 microsomes, 100 µM ketoconazole, range over the three enzymes) was in the range of 49 to 85%; against UGT1A9 (human, pH 7.4, probe R,S-oxazepam 4 µM, oxazepam glucuronide formation, rUGT1A9 microsomes, 100 µM ketoconazole, range over the three enzymes) it was 49 to 85%; on UGT2B15 (human, pH 7.4, probe R,S-oxazepam 12 µM, oxazepam glucuronide formation, rUGT2B15 microsomes, 100 µM ketoconazole, range over the three enzymes) it was 49 to 85%.

For the compound `O=C1Nc2ccc(Cl)cc2C(c2ccccc2)=NC1O` (stereo not drawn) [oxazepam, Oxazepam], the “fm (fractional metabolism via glucuronidation)” value in data set [3] is 0.8.
